Laboratory results published in US7906624B2, “Binding peptidomimetics and uses of the same” (The Trustees of the University of Pennsylvania, priority 2004, dated 2011).

Legend:
[1] = molecular target: T1, Her2-human Fc fusion protein (Homo sapiens, UniProt P04626); assay: ELISA for Her2-Fc binding of protein immobilized on biotin-coated plate; conditions: 0-1.1 μg/well immobilized on biotin-coated plate; Her2-Fc 50 ng/well
T1 construct: Her2-human Fc fusion protein that was composed of the ectodomain of Her2 and the Fc of human IgG; purchased Xcyte Therapeutic, Seattle, Wash
Method: (§1) FIG. 4, panels A and B show data from enzyme-linked immunosorbent assay (ELISA) analysis of recombinant proteins for biotin and Her2-Fc binding ability. Panel A: Streptavidin or ASA was immobilized on biotin-coated plate. Bound protein was detected using an anti-streptavidin antibody-HRP. Panel B: After immobilization of Streptavidin or ASA on biotin-coated plate, Her2-human Fc fusion was added to each plate and bound fusion protein was detected using anti-Her2 antibody and anti-mouse IgG-HRP. The amounts of Streptavidin or ASA fusion protein used in this experiment were: well 1: 0; 2: 0.11 ng; 3: 1.1 ng; 4: 11 ng; 5: 110 ng; 6: 1100 ng.
(§2) The binding of ASA to Biotin and Her2 was determined by a modified ELISA assay. ELISA was performed at room temperature (RT) or 4° C. Purified streptavidin or ASA (0-1.1 μg/well) was immobilized on the biotin-coated ELISA plate (Pierce) for 1 hr at 4° C. in PBS. […] The A450 nm value of the plates was determined using an ELISA reader. Bound streptavidin was detected by the same method using an anti-streptavidin-HRP in PBS (1; 500 dilution; 50 μL/well).
(§3) The ASA fusion protein was tested to determine if it would bind to biotin as well as Her2. […] Bound Her2-Fc was detected by the mouse anti-Her2 antibody (4D5) and the HRP-conjugated anti-mouse IgG antibody.

[2] = ELISA on biotin-coated plate, bound protein detected with anti-streptavidin antibody-HRP; assay type: binding; conditions: 0-1.1 μg/well on biotin-coated plate
Method: as §1, §2, §3

[3] = test system: T6-17 cells (Her2 transformed cells); assay: MTT cell proliferation assay, T6-17 cells; assay type: cell-based
Method: (§4) FIG. 5, panels A and B show inhibition of cell proliferation by ASA. Effects of ASA treatment, or treatments with streptavidin and the peptide AHNP, on the proliferation of T6-17 (Her2 transformed cells, Panel A) or NR6 (control cells, Panel B) were shown; Cell proliferation was measured by the standard MTT assay performed on poly-HEMA plates (for T6-17) or regular tissue culture plates (for NR6).
(§5) T6-17 and NR6 cells were grown in DMEM medium supplemented with 10% heat inactivated fetal calf serum, L-glutamine (2 mM), penicillin (100 U/ml) and streptomycin (100 μg/ml) at 37° C. in a humidified 5% CO2 atmosphere.
(§6) The MTT assay has been used modified method for measuring cell growth. T6-17 cells or NR6 cells were seeded in poly 2-hydroxyethyl methacrylate coated 96 well plates (50 μl/well, 800 cells/well or 1200 cells/well). Then the Streptavidin or ASA protein or the AHNP peptide were (50 μl/well, 0.69 μM or 6.9 μM) and incubate at 37° C. in a humidified 5% CO2 atmosphere for 48 hr. A total of 25 μl of MTT solution (5 mg/ml in PBS) was added to each well, and after 2 hr of incubation at 37° C., 100 μl of the extraction-buffer (20% w/v SDS, 50% N,N-dimethyl formamide, pH 4.7) were added. After an overnight incubation at 37° C., the optical density at […] was measured using an ELISA reader.

[4] = test system: NR6 cells (control cells); assay: MTT cell proliferation assay, NR6 control cells; assay type: cell-based; conditions: NR6 control cell line
Method: as §4, §5, §6

[5] = test system: T6-17 cells injected subcutaneously into nude mice; assay: T6-17 tumor growth in nude mice; assay type: in vivo; conditions: for reduction of tumor size: day 14
Method: 1 million of T6-17 cells were injected subcutaneously into nude mice to induce the tumor growth. Panel A. Treatment of ASA started from day 0. Panel B. Treatment started on day 2 after tumor were palpable. NCR homozygous athymic (nude) mice (six to eight weeks-old) were purchased from the National Cancer Institute. To induce tumor, 10^6 transformed T6-17 cells were suspended in 100 μl of PBS and injected subcutaneously into the flank of each animal. Animals were maintained in accordance with guidelines of the Institutional Animal Care and Use Committee (IACUC) of the University of […]. Tumor volume was calculated by the formula: π*length*width*Height/6. T6-17 cells were transformed by the over-expression of human Her2/neu […]. […] In one experiment, animals were treated with either streptavidin or ASA (11.25 mg/kg/week). Treatment stared from day 0 and was provided to animals by three subcutaneous injections each week. […] Treatment was also provided to mice by a different administration route in a second experiment, in which intraperitoneal treatment started day 2 after palpable tumor appeared ( 2 cubic mm) (FIG. 6, Panel B). ASA was given at the dose of 15 mg/kg/week, divided into three injections.

[6] = in vivo; cited from earlier work

Substance	binding to Her2-Fc fusion (ELISA) [1]	binding to biotin (ELISA) [2]	inhibition of cell proliferation ([3]; T6-17 cells, two different concentrations (0.69 μM or 6.9 μM), 48 hr, MTT)	molar concentration of ASA relative to the AHNP peptide necessary to achieve 50% cell growth inhibition in vitro ([3]; in vitro, relative to AHNP peptide)	inhibitory effect on cell proliferation [4]	appearance of palpable tumor prevented until ([5]; 11.25 mg/kg/week, subcutaneous, from day 0) [days]	molar excess of AHNP with comparable activity in reducing tumor growth in vivo ([5]; ASA compared with AHNP) [fold]	reduction of tumor size ([5]; 11.25 mg/kg/week, three subcutaneous injections each week, from day 0) [%]	reduction of tumor size ([5]; intraperitoneal, 15 mg/kg/week in three injections, from day 2 after palpable tumor, vs vehicle control)	serum half-life [6]
ASA: Recombinant fusion of AHNP peptide, 11 amino acid linker GGGGSRSNSSS, streptavidin core and C-terminal NSSS linker plus His-tag; forms tetramer	able to bind to the Her2-Fc fusion in a dose-dependent manner	bound to biotin in a dose-dependent manner	20-50%	about 10 times	Inhibitory effects were not observed	7	~30	62	about 47.6%	–
streptavidin: Tetrameric biotin-binding protein produced by Streptomyces avidinii; recombinant core used as control [reference compound]	didn't bind to the Her2-human Fc fusion protein even at the highest concentration	bound to biotin in a dose-dependent manner	–	–	–	–	–	–	–	about 12 hours
